{
  "source": "paper PMC6943582",
  "about": "(2019)",
  "key": {"[1]": {"tested_on": "NEO2A (RNA, aptamer) CACUGCAGUCCGAAAAGGGCCAGUG", "experiment": "ITC", "conditions": "13.5 mM NaCl, 150 mM KCl, 0.12 mM MgCl2, 0.1 mM MgSO4, 120 nM CaCl2, Buffer A: 20 mM HEPES, pH 7.3, 25 °C"}, "[2]": {"tested_on": "NEO2AΔA (RNA, aptamer) CACUGCAGUCCGAAAGGGCCAGUG", "experiment": "ITC", "conditions": "13.5 mM NaCl, 150 mM KCl, 0.12 mM MgCl2, 0.1 mM MgSO4, 120 nM CaCl2; Buffer A: 20 mM HEPES, phosphate, pH 7.3, 25 °C"}, "[3]": {"tested_on": "2AP13NEO2A (RNA, aptamer, 2-aminopurine at 13) CACUGCAGUCCGAAAAGGGCCAGUG", "experiment": "2-aminopurine fluorescence", "conditions": "buffer A or F; 10 μM ligand, 1 μM RNA; fluorescence increase"}, "[4]": {"tested_on": "2AP16NEO2A (RNA, aptamer, 2-aminopurine at 16) CACUGCAGUCCGAAAAGGGCCAGUG", "experiment": "ITC", "conditions": "13.5 mM NaCl, 150 mM KCl, 0.12 mM MgCl2, 0.1 mM MgSO4, 120 nM CaCl2; Buffer A, pH 7.3, 25 °C; affinity 40% of unsubstituted NEO2A"}, "[5]": {"tested_on": "2AP14NEO2A (RNA, aptamer, 2-aminopurine at 14) CACUGCAGUCCGAAAAGGGCCAGUG", "experiment": "2-aminopurine fluorescence", "conditions": "buffer A or F; 10 μM ligand, 1 μM RNA; fluorescence decrease"}, "[6]": {"tested_on": "2AP7NEO2A (RNA, aptamer, 2-aminopurine at 7) CACUGCAGUCCGAAAAGGGCCAGUG", "experiment": "2-aminopurine fluorescence", "conditions": "buffer A or F; 10 μM ligand, 1 μM RNA; fluorescence increase"}},
  "data": [
    {"compound": "CCN[C@@H]1C[C@H](N)[C@@H](O[C@H]2OC(CN)=CC[C@H]2N)[C@H](O)[C@H]1O[C@H]1OC[C@](C)(O)[C@H](NC)[C@H]1O", "values": [
      {"measurement": "Kd", "setting": "[1]; phosphate", "result": "> 100", "unit": "µM"}
    ]},
    {"compound": "CN[C@@H]1[C@@H](O)[C@@H](O[C@@H]2[C@@H](O)[C@H](O[C@H]3OC(CN)=CC[C@H]3N)[C@@H](N)C[C@H]2N)OC[C@]1(C)O", "values": [
      {"measurement": "Kd", "setting": "[2]", "result": "4.9 ± 1.0", "unit": "µM"},
      {"measurement": "Kd", "setting": "[1]; phosphate", "result": "4.9 ± 1.2", "unit": "µM"}
    ]},
    {"compound": "CN[C@@H]1[C@@H](O)[C@@H](O[C@@H]2[C@@H](O)[C@H](O[C@H]3O[C@H]([C@@H](C)O)[C@@H](O)[C@H](O)[C@H]3N)[C@@H](N)C[C@H]2N)OC[C@]1(C)O", "values": [
      {"measurement": "Kd", "setting": "[1]; phosphate", "result": "> 100", "unit": "µM"}
    ]},
    {"compound": "NCC[C@H](O)C(=O)N[C@@H]1C[C@H](N)[C@@H](O[C@H]2O[C@H](CN)[C@@H](O)[C@H](O)[C@H]2O)[C@H](O)[C@H]1O[C@H]1O[C@H](CO)[C@@H](O)[C@H](N)[C@H]1O", "values": [
      {"measurement": "Kd", "setting": "[1]; phosphate", "result": "> 100", "unit": "µM"}
    ]},
    {"compound": "NC[C@@H]1O[C@H](O[C@H]2[C@@H](O)[C@H](O[C@@H]3[C@@H](O)[C@H](N)C[C@H](N)[C@H]3O[C@H]3O[C@H](CN)[C@@H](O)[C@H](O)[C@H]3N)O[C@@H]2CO)[C@H](N)[C@@H](O)[C@@H]1O", "values": [
      {"measurement": "binding", "setting": "[3]", "result": "yes"},
      {"measurement": "Kd", "setting": "[2]", "result": "0.17 ± 0.031", "unit": "µM"},
      {"measurement": "Kd", "setting": "[1]; phosphate", "result": "0.25 ± 0.050", "unit": "µM"},
      {"measurement": "binding", "setting": "[4]", "result": "yes"},
      {"measurement": "binding", "setting": "[5]", "result": "yes"},
      {"measurement": "binding", "setting": "[6]", "result": "yes"}
    ]},
    {"compound": "NC[C@@H]1O[C@H](O[C@H]2[C@@H](O)[C@H](O[C@@H]3[C@@H](O)[C@H](N)C[C@H](N)[C@H]3O[C@H]3O[C@H](CO)[C@@H](O)[C@H](O)[C@H]3N)O[C@@H]2CO)[C@H](N)[C@@H](O)[C@@H]1O", "values": [
      {"measurement": "binding", "setting": "[2]", "result": "no"},
      {"measurement": "Kd", "setting": "[1]; phosphate", "result": "1.6 ± 0.26", "unit": "µM"}
    ]},
    {"compound": "NC[C@H]1O[C@H](O[C@H]2[C@H](O)[C@@H](O[C@H]3O[C@H](CO)[C@@H](O)[C@H](N)[C@H]3O)[C@H](N)C[C@@H]2N)[C@H](N)C[C@@H]1O", "values": [
      {"measurement": "Kd", "setting": "[2]", "result": "6.3 ± 0.84", "unit": "µM"},
      {"measurement": "Kd", "setting": "[1]; phosphate", "result": "0.40 ± 0.051", "unit": "µM"}
    ]},
    {"compound": "NC[C@H]1O[C@H](O[C@H]2[C@H](O)[C@@H](O[C@H]3O[C@H](CO)[C@@H](O)[C@H](N)[C@H]3O)[C@H](N)C[C@@H]2N)[C@H](N)[C@@H](O)[C@@H]1O", "values": [
      {"measurement": "Kd", "setting": "[1]; phosphate", "result": "0.25 ± 0.073", "unit": "µM"}
    ]},
    {"compound": "NC[C@H]1O[C@H](O[C@H]2[C@H](O)[C@@H](O[C@H]3O[C@H](CO)[C@@H](O)[C@H](N)[C@H]3O)[C@H](N)C[C@@H]2N)[C@H](O)[C@@H](O)[C@@H]1O", "values": [
      {"measurement": "Kd", "setting": "[1]; phosphate", "result": "26 ± 3.0", "unit": "µM"}
    ]},
    {"compound": "NC[C@H]1O[C@H](O[C@H]2[C@H](O[C@@H]3O[C@H](CO)[C@@H](O)[C@H]3O)[C@@H](O)[C@H](N)C[C@@H]2N)[C@H](N)[C@@H](O)[C@@H]1O", "values": [
      {"measurement": "Kd", "setting": "[2]", "result": "2.3 ± 0.0015", "unit": "µM"},
      {"measurement": "Kd", "setting": "[1]; Table S4 prints 0.4 ± 0.075", "result": "0.28 ± 0.066", "unit": "µM"}
    ]}
  ]
}
